Four compounds from DBAASP can be followed below.

The structures appear in SMILES notation. Values after ≈ are worked out from the molar mass of the structure shown. Some results are limits rather than exact numbers.

Test systems include Bacillus subtilis 168; Staphylococcus aureus; Escherichia coli; Listeria monocytogenes; Escherichia coli K-12; Escherichia coli D31; Escherichia coli BL21AI; Escherichia coli 45849.
Common to all, as to assay: ≥ marks a high value that may be exact or a test limit, other limits are often not marked, values filed in µg/mL are converted to µM
Experiment [1] relates to Staphylococcus aureus BNCC 186335.
Experiment [2] has as its system Pseudomonas aeruginosa PAO1.
For experiment [3], the system named is Pseudomonas aeruginosa BNCC 125486.
Experiment [4] deals with Staphylococcus aureus USA 300.
The test system of experiment [5] is Escherichia coli BNCC 133264.
Experiment [6] concerns Klebsiella pneumoniae KK3 9904.
The subject of experiment [7] is Pseudomonas aeruginosa ATCC 27853.
Experiment [8] concerns Enterobacter cloacae HNTCC 53001.
Experiment [9] has as its system Staphylococcus epidermidis RP62A.
In experiment [10] the test system is Candida albicans ATCC 90028.
In experiment [11] the test system is Escherichia coli ATCC 25922.
Experiment [12] concerns Staphylococcus aureus NCTC 8325.
For experiment [13], the system named is Staphylococcus aureus T7/20.
The test system of experiment [14] is Proteus mirabilis ATCC 25933.
The subject of experiment [15] is Enterococcus faecalis ATCC 29212.
For experiment [16], the system named is Acinetobacter baumannii NM124.
In experiment [17] the test system is Staphylococcus aureus ATCC 25923.
In experiment [18] the test system is Acinetobacter baumannii NM75.
For experiment [19], the system named is Cutibacterium acnes ATCC 18380.
In experiment [20] the test system is Acinetobacter baumannii NM109.
Experiment [21] relates to Cutibacterium acnes ATCC 32548.
In experiment [22] the test system is Cutibacterium acnes ATCC 31766.
In experiment [23] the test system is Cutibacterium acnes ATCC 15725.
Experiment [24] deals with Acinetobacter baumannii NM35.
The subject of experiment [25] is Cutibacterium acnes ATCC 50247.
Experiment [26] concerns Cutibacterium acnes ATCC 29903.
The test system of experiment [27] is Cutibacterium acnes ATCC 11828.
In experiment [28] the test system is Escherichia coli ATCC 25726.
In experiment [29] the test system is Cutibacterium acnes ATCC 33257.
For experiment [30], the system named is Acinetobacter baumannii NM8.
The subject of experiment [31] is Salmonella enterica subsp. enterica serovar Typhi S5.
Experiment [32] deals with Salmonella enterica subsp. enterica serovar Typhimurium ATCC 700408.
Experiment [33] deals with Klebsiella pneumoniae K6 ATCC 700603.
In experiment [34] the test system is Agrobacterium tumefaciens ATCC 15955.
Experiment [35] deals with Micrococcus luteus ATCC 10240.
Experiment [36] relates to Klebsiella pneumoniae 123132.

Take `CC[C@H](C)[C@H](NC(=O)[C@H](CCCCN)NC(=O)[C@H](CCCN=C(N)N)NC(=O)[C@@H](NC(=O)[C@H](CC(C)C)NC(=O)[C@H](CCCCN)NC(=O)[C@H](CC(C)C)NC(=O)[C@@H](NC(=O)[C@H](CCCCN)NC(=O)CNC(=O)[C@H](Cc1ccccc1)NC(=O)[C@@H](N)Cc1ccccc1)C(C)C)[C@@H](C)CC)C(=O)N[C@@H](Cc1ccccc1)C(N)=O` [FFGKVLKLIRKIF]: the MIC was not below 100 µM in the experiment on Bacillus subtilis 168; not below 39.8 µM in experiment [1]; more than 100 µM in experiment [2]; not below 79.5 µM in experiment [3]; 3.1 µM (≈ 4.99 µg/mL) in experiment [4]; 39.8 µM (≈ 64 µg/mL) with Staphylococcus aureus. The MIC against Escherichia coli was more than 79.5 µM; in [5] it was not below 79.5 µM; in the experiment on Listeria monocytogenes, 4.97 µM (≈ 8 µg/mL); against Escherichia coli K-12, not below 100 µM.
As to `CC[C@H](C)[C@H](NC(=O)[C@H](CCCCN)NC(=O)[C@H](CO)NC(=O)[C@@H](NC(=O)[C@H](CC(C)C)NC(=O)[C@H](CO)NC(=O)[C@@H]1CCCN1C(=O)[C@H](CC(C)C)NC(=O)[C@H](C)NC(=O)[C@H](CO)NC(=O)[C@H](C)NC(=O)[C@H](CC(C)C)NC(=O)[C@H](C)NC(=O)CNC(=O)[C@@H](NC(=O)[C@@H](NC(=O)[C@H](CO)NC(=O)CNC(=O)[C@H](CC(C)C)NC(=O)[C@@H](N)Cc1ccccc1)[C@@H](C)CC)C(C)C)[C@@H](C)CC)C(=O)N[C@@H](CCCN=C(N)N)C(=O)N[C@@H](CC(N)=O)C(N)=O` [FLGSIVGALASALPSLISKIRN], the MIC is not below 100 µM in [6]; 50 µM (≈ 111 µg/mL) in experiment [7]; not below 50 µM in experiment [8]; 12.5 µM (≈ 27.8 µg/mL) in experiment [9]; not below 50 µM in experiment [10]; 25 µM (≈ 55.7 µg/mL) in experiment [11]. Also, the minimal inhibitory concentration (MIC) in experiment [12] was 25 µM (≈ 55.7 µg/mL); in [13] it was 25 µM (≈ 55.7 µg/mL); in experiment [14] it was not below 100 µM; in [15] it was 50 µM (≈ 111 µg/mL).
For the compound `CC[C@H](C)[C@H](NC(=O)[C@@H](NC(=O)CN)C(C)C)C(=O)N[C@@H](CCCCN)C(=O)N[C@@H](CO)C(=O)N[C@H](C(=O)N[C@@H](CC(C)C)C(=O)N[C@@H](CCCCN)C(=O)NCC(=O)N[C@H](C(=O)N[C@@H](C)C(=O)N[C@@H](CCCCN)C(=O)N[C@H](C(=O)N[C@H](C(=O)N[C@@H](C)C(=O)N[C@@H](CC(C)C)C(=O)NCC(=O)N[C@@H](CCSC)C(=O)N[C@@H](CC(C)C)C(N)=O)C(C)C)[C@@H](C)O)C(C)C)C(C)C` [GVIKSVLKGVAKTVALGML], the MIC was 12.5 µM (≈ 23.5 µg/mL) in experiment [16]; 12.5 µM (≈ 23.5 µg/mL) in [17]; 12.5 µM (≈ 23.5 µg/mL) in experiment [18]; not below 50 µM in [10]; not below 50 µM in experiment [19]; 12.5 µM (≈ 23.5 µg/mL) in [20]. Also, the MIC in experiment [21] amounted to 12.5 µM (≈ 23.5 µg/mL); in experiment [22], 6 µM (≈ 11.3 µg/mL); in experiment [23] it was 12.5 µM (≈ 23.5 µg/mL); in [24], 6 µM (≈ 11.3 µg/mL); in [25] it was 6 µM (≈ 11.3 µg/mL); in [26] it was 25 µM (≈ 47.1 µg/mL). Further, the MIC in experiment [27] turned out to be 12.5 µM (≈ 23.5 µg/mL); in experiment [28], 12.5 µM (≈ 23.5 µg/mL); in experiment [29], 12.5 µM (≈ 23.5 µg/mL); in [30] it was 6 µM (≈ 11.3 µg/mL).
As for `CC[C@H](C)[C@H](NC(=O)[C@H](Cc1ccc(O)cc1)NC(=O)[C@@H](NC(=O)[C@@H]1CCCN1C(=O)[C@H](CCCN=C(N)N)NC(=O)[C@H](CC(N)=O)NC(=O)[C@H](CC(N)=O)NC(=O)[C@@H](N)CCCCN)C(C)C)C(=O)N1CCC[C@H]1C(=O)N[C@@H](CCCCN)C(=O)N1CCC[C@H]1C(=O)N[C@@H](CCCN=C(N)N)C(=O)N1CCC[C@H]1C(=O)N1CCC[C@H]1C(=O)N[C@@H](Cc1cnc[nH]1)C(=O)N1CCC[C@H]1C(=O)N[C@@H](CCCN=C(N)N)C(=O)N[C@@H](CC(C)C)C(N)=O` [KNNRPVYIPKPRPPHPRL], the MIC in experiment [31] is 0.459 µM (≈ 1 µg/mL); in [32], 0.162 µM (≈ 0.353 µg/mL); in [33], 3.67 µM (≈ 8 µg/mL); in [34], 0.298 µM (≈ 0.65 µg/mL); against Escherichia coli D31, 3.67 µM (≈ 8 µg/mL); in experiment [35] it was 0.634 µM (≈ 1.38 µg/mL). Further, the MIC in experiment [36] was determined as 1.84 µM (≈ 4 µg/mL); with Escherichia coli BL21AI it was 1.27 µM (≈ 2.76 µg/mL); against Escherichia coli 45849, 0.115 µM (≈ 0.25 µg/mL).

In general, MIC refers to the lowest concentration that inhibits growth of the organism. A higher MIC goes with a less susceptible organism.
